# Experiments:
# [1] = target: T1, human adenosine A3 receptor (CHO-K1-hA3R cells) (Homo sapiens, UniProt P0DMS8); assay: Competitive real-time cell-binding studies (LigandTracer), displacement of [125I]-AB-MECA; details: 0.7 nM [125I]-AB-MECA, ambient temperature, Cheng-Prusoff, mean ± SEM, three independent experiments
# T1 construct: expressed in transfected cells
# T1 sequence (P0DMS8 1-318): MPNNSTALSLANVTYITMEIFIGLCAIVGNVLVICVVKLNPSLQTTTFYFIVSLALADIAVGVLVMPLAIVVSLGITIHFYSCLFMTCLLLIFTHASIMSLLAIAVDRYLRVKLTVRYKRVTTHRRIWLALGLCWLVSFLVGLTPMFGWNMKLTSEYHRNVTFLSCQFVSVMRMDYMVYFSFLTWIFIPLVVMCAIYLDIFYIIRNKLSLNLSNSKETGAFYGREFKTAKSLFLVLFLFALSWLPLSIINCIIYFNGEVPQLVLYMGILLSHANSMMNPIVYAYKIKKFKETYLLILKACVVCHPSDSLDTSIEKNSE
# Description: The measurements were made according to the assay protocol as previously described above. […] The experiments were initiated with a baseline measurement (10–15 min). […] Inhibition of the radioligand was performed by adding different concentration series (1–500 nM) of unlabelled compounds (A3R antagonists) each after visual binding equilibrium. At least four different concentrations of competitor, spanning three orders of magnitude adjusted appropriately for the IC50 of each compound, were used. Unspecific binding was determined in the presence of a high concentration (0.5–100 μM) of the non-labelled competitor substance. The observed association phase of the radioligand and the dissociation phase of each consecutive concentration of the competitor substance were monitored in real-time until visual binding equilibrium was reached. All non-labelled compounds were initially dissolved in DMSO and diluted with deionized water to the final concentration, where the amount of DMSO never exceeded 5%. Cytophysiological conditions and cell attachment were examined continuously during the whole course of the experiment with the perimeter trace of the LigandTracer® software (version 1.0.1).
# Raw data from the LigandTracer® measurements were analysed in GraphPad Prism 6.0 (GraphPad Software, Inc., San Diego, CA). Experiments were conducted at least as a triplicate with different batches of radioligand and biological target material to avoid systematic bias and to assure statistical certainty. […] Transformed data was analysed using “one-phase association” curve fitting algorithm as outlined in the following equation:2 Y=Y0+Plateau−Y0*1−e^−k*x where “x” is a given time and “Y” corresponds to the amount of radioligand binding for a dedicated time point. “Y 0” is the initial value of “Y” at the beginning of radioligand incubation and “plateau” indicates the maximum amount of the bound radioligand after equilibrium. “k” is the rate constant expressed in reciprocal units of “x”.
# Transformed data were analysed by using “dissociation—one-phase exponential decay” curve fit as follows:3 Y=Y0−NS*e^−k*x+NS where “x” is a given time and “Y” corresponds to the amount of bound radioligand for a dedicated time point. “Y 0” is the initial value of “Y” at the beginning of each dissociation phase and “NS” indicates the steady state of radioligand binding in the presence of dedicated cold competitor after infinite time. “k” is the rate constant expressed in reciprocal units of “x”.
# Equilibrium binding data determined in Eqs. (2) and (3) served as input parameters for the calculation of the IC50 using “log(inhibitor) vs. response—variable slope (four parameters)” nonlinear regression algorithm as described below:4 Y=Bottom+Top−Bottom/1+10^logIC50−C*HillSlope where “C” is the logarithm of the competitor concentration and “Y” reflects the dedicated amount of bound radioligand at equilibrium obtained from Eq. (3). “Top” indicates the maximum amount of radioligand binding (without any competitor) whereas the corresponding value is derived from Eq. (2). “Bottom” expresses the amount of unspecific radioligand binding in presence of a very high concentration of competitor. The dedicated value is determined by Eq. (3) and corresponds to the “NS” value of the last inhibitor concentration. The “HillSlope” reflects the slope factor, which indicates the steepness of the resulting inhibition curve. […] The resulting IC50 was converted into the K i using Cheng-Prusoff Eq. (3).
# [2] = HPLC-based measurement of the logarithm of the octanol-water partition coefficient (HPLClogD7.4); type: physicochemical; details: pH 7.4, HPLC-based assay; mean ± SEM of three independent experiments
# Description: The logarithm of the octanol-water partition coefficient of the A3R antagonists were determined at pH 7.4 by high-performance liquid chromatography (HPLC)-based assay (HPLClogD^7.4) modified from Donovan and Pescatore. Briefly, a mixture of two internal standards (toluene and triphenylene) with known logD values and defined retention times (k’) have been used. A3R antagonists were dissolved in methanol and injected onto a short polymeric ODP-50 column (20 × 4.0 mm, 5 μm pore size, Supelco, Bellefonte, PA, USA). A linear gradient from 10% methanol/90% phosphate buffer (25 mM, pH 7.4) to 100% methanol within 9.4 min at a flow rate of 1.5 mL/min were applied. Measurement and detection of the three retention times of toluene, triphenylene and A3R antagonists were performed at 260 and 285 nm. Between consecutive HPLC runs, 5 min for re-equilibration of the HPLC column were allowed. The logD values of the dedicated compounds were determined using the known logD values of triphenylene and toluene and the retention time of triphenylene, toluene and the unknown compounds according to the following formula:1 logPUnknown=logPtol−logPtriph*tUnknown+ttol*logPtriph−ttriph*logPtol/ttol−ttriph where “log P Unknown” is the logD value of the test compound and “t Unknown” the corresponding measured retention time of the dedicated substance. The logD values for the internal standards are abbreviated as “log P tol” (toluene) and “log P triph” (triphenylene), respectively. Measured retention times are indicated as “t tol” for toluene and “t triph” for triphenylene.
# human A3R [3] = target: human A3R; design: method as in PMID 11462807, PMID 8190112, PMID 8576921; details: traditional binding assays, membranes from human A3R-transfected HEK-293 cells; ref [30], [32], [33]; read-out: Ki Literature; cited from earlier work
# human A3R [4] = details: traditional saturation binding assays, membranes from human A3R-transfected HEK-293 cells; ref [29]; read-out: K d (Reported affinity); cited from earlier work
SMILES,Ki [1] [µM],chromatographic logD [2],Ki (human A3R [3]) [µM],Kd (human A3R [4]) [µM]
"CCCOC(=O)c1c(-c2ccccc2)nc(CC)c(C(=O)SCC)c1CCC [MRS1523, 2,3-ethyl-4,5-dipropyl-6-phenylpyridine-3-thiocarboxylate-5-carboxylate, reference compound]",0.0178 ± 0.00288,4.85 ± 0.01,0.0189 ± 0.0041,
"CCSC(=O)c1c(CC)nc(-c2ccccc2)c(C(=O)OCCF)c1CC [FE@SUPPY, 5-(2-fluoroethyl)2,4-diethyl-3-(ethylsulfanylcarbonyl)-6-phenylpyridine-5-carboxylate]",0.00851 ± 0.00146,4.04 ± 0.36,,
"CCOC(=O)C1=C(C)NC(c2ccccc2)=C(C(=O)OCc2ccccc2)C1C#Cc1ccccc1 (centres unmarked) [MRS1191, 1,4-dihydro-2-methyl-6-phenyl-4-(phenylethynyl)-3,5-pyridinedicarboxylic acid, 3-ethyl 5-(phenylmethyl) ester, reference compound]",,4.83 ± 0.01,,
"CCc1nc(-c2ccccc2)c(C(=O)OCCF)c(CC)c1C(=O)SCCF [(FE)^2@SUPPY, 2-fluoroethyl 4,6-diethyl-5-{[(2-fluoroethyl)sulfanyl]carbonyl}-2-phenylpyridine-3-carboxylate]",0.00805 ± 0.00177,3.95 ± 0.38,,
"CNC(=O)[C@H]1O[C@@H](n2cnc3c(NCc4ccc(N)c(I)c4)ncnc32)[C@H](O)[C@@H]1O [[^125I]-AB-MECA, [^125I]-4-aminobenzyl-5′-N-methylcarboxamideoadenosine]",,,,0.00059 ± 2e-05

# Second part, led by results:
Ki [1] [µM],chromatographic logD [2],SMILES,Ki (human A3R [3]) [µM],Kd (human A3R [4]) [µM]
0.0412 ± 0.00391,3.83 ± 0.36,"CCc1nc(-c2ccccc2)c(C(=O)OC)c(CC)c1C(=O)SCCF [FEMe@SUPPY:2, methyl 4,6-diethyl-5-{[(2-fluoroethyl)sulfanyl]carbonyl}-2-phenylpyridine-3-carboxylate]",,
0.114 ± 0.0169,0.97 ± 0.37,"CCSC(=O)c1c(CC)nc(-c2ccccc2)c(C(=O)O)c1CC [DFE@SUPPY, 4,6-diethyl-5-[(ethylsulfanyl)carbonyl]-2-phenylpyridine-3-carboxylic acid]",,
0.00824 ± 0.00235,4.05 ± 0.36,"CCOC(=O)c1c(-c2ccccc2)nc(CC)c(C(=O)SCCF)c1CC [FE@SUPPY:2, 5-ethyl 2,4-diethyl-3-((2-fluoroethyl)sulfanylcarbonyl)-6-phenylpyridine-5-carboxylate]",,
0.0461 ± 0.00666,3.66 ± 0.33,"CCc1nc(-c2ccccc2)c(C(=O)OC)c(CC)c1C(=O)SC [(Me)^2@SUPPY, methyl 4,6-diethyl-5-[(methylsulfanyl)carbonyl]-2-phenylpyridine-3-carboxylate]",,
